Data from US8765779B2, “Tricyclic derivatives and their pharmaceutical use and compositions” (Cephalon, Inc., priority 2009, dated 2014).
Counter-ions that a name gives are not always drawn.

target: T1, human 5-HT6 receptor (Homo sapiens, UniProt P50406); assay: Human 5-HT6 Receptor Binding Assay ([3H]LSD displacement, scintillation beads); settings: membranes of CHO-K1 cells with recombinant human 5-HT6, 4 nM [3H]LSD; Table 1, class symbols; read-out: h5-HT6 (Ki)
T1 construct: host or cells: CHO-K1 cells, stably transfected; membranes prepared in house
T1 sequence (P50406 whole entry): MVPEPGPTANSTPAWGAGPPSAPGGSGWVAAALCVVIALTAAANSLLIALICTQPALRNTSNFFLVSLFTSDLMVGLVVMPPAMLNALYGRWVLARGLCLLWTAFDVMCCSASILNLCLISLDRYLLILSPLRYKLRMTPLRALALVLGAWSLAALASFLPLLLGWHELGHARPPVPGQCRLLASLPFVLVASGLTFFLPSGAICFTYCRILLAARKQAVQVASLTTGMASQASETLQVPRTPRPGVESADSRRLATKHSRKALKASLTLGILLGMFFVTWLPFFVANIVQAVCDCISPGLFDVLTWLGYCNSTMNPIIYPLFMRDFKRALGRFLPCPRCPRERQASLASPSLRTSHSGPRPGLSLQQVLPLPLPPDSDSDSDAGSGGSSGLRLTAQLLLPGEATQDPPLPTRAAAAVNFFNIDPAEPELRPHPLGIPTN

`COc1cc(OC(C)C)cc(S(=O)(=O)c2ccc3c(c2)OC2CNCCC32)c1` (stereo not drawn) [Example 77] and `CC(C)Oc1cc(OCCO)cc(S(=O)(=O)c2ccc3c(c2)OC2CNCCC32)c1` (stereo not drawn) [Example 590] cannot be ordered by Ki: < 500 nM for the first, < 500 nM for the second.

`O=S(=O)(c1cccc(Cl)c1)c1ccc2c3c(oc2c1)C1CCN1CC3` (stereo not drawn) [Example 621] and `CC(C)CN1CCc2c(oc3cc(S(=O)(=O)c4cccc(Cl)c4)ccc23)C1` [Example 600] cannot be ordered by Ki: < 500 nM for the first, < 500 nM for the second.

`O=S(=O)(c1cccc(OC(F)(F)F)c1)c1ccc2c(c1)OC1CNCCC21` (stereo not drawn) [Example 149, 7-{[3-(trifluoromethoxy)phenyl]sulfo-nyl}-1,2,3,4,4a,9a-hexahydro[1]benzofuro[2,3-c]pyridine] and `O=S(=O)(c1cccc(OCC(F)F)c1)c1ccc2c(c1)OC1CNCCC21` (stereo not drawn) [Example 578] cannot be ordered by Ki: < 500 nM for the first, < 500 nM for the second.

Going from `O=S(=O)(Oc1ccc2c(c1)OC1CN(Cc3ccccc3)CCC21)c1ccc(Cl)cc1` (stereo not drawn) [Example 803] to `O=S(=O)(Oc1ccc2c(c1)OC1CNCCC21)c1cccc(Cl)c1Cl` (stereo not drawn) [Example 678], the Ki falls from > 1000 nM to < 500 nM. The second binds more tightly here.

`O=S(=O)(c1cc(Cl)cc(Cl)c1)c1ccc2c3c(oc2c1)CNCC3` [Example 211, 7-[(3,5-dichlorophenyl)sulfonyl]-1,2,3,4-tetrahydro[1]benzofuro[2,3-c]pyridine] and `O=S(=O)(c1ccc2c3c(oc2c1)CNCC3)c1cccc(Cl)c1Cl` [Example 196, 7-[(2,3-dichlorophenyl)sulfonyl]-1,2,3,4-tetrahydro[1]benzofuro[2,3-c]pyridine] cannot be ordered by Ki: < 500 nM for the first, < 500 nM for the second.

`O=S(=O)(c1ccccc1)c1ccc2c3c(oc2c1)C1(CCOCC1)NCC3` [Example 296] and `O=S(=O)(c1cccc(F)c1)c1ccc2c3c(oc2c1)C1(CCOC1)NCC3` (racemic) [Example 30, 7-[(3-fluorophenyl)sulfonyl]-3,4,4′,5′-tetrahydro-2H-spiro[1-benzofuro[2,3-c]pyridine-1,3′-furan]] cannot be ordered by Ki: < 500 nM for the first, < 500 nM for the second.

First: COc1cccc(S(=O)(=O)Oc2ccc3c(c2)C2CCNCC2O3)c1 (stereo not drawn) [Example 708]
Second: O=S(=O)(Oc1ccc2c(c1)OC1CNCCC21)c1c(Cl)cccc1Cl (stereo not drawn) [Example 679]
The Ki of the first is higher: 500 to 1000 nM for the first, < 500 nM for the second. The second binds more tightly here.

Compared with `Cc1c(S(=O)(=O)Oc2ccc3c(c2)C2(C)CCNCC2O3)sc2ccc(Cl)cc12` (stereo not drawn) [Example 783], `CC12CCNCC1Oc1ccc(OS(=O)(=O)c3ccccc3Cl)cc12` (stereo not drawn) [Example 763] is higher in Ki: 500 to 1000 nM for the first, > 1000 nM for the second. The first binds more tightly here.

`[O-][S+](c1ccc2c(c1)OC1CNCCC21)c1c(F)c(F)cc(F)c1F` (stereo not drawn) [Example 144] and `O=S(=O)(c1cccnc1)c1ccc2c(c1)OC1CNCCC21` (stereo not drawn) [Example 393] cannot be ordered by Ki: > 1000 nM for the first, > 1000 nM for the second.

`COc1c(F)cc(F)cc1S(=O)(=O)c1ccc2c3c(oc2c1)C(C)(C)NCC3` [Example 470] and `COc1cccc(S(=O)(=O)c2ccc3c4c(oc3c2)C(C)(C)NCC4)c1` [Example 16, 7-[(3-methoxyphenyl)sulfonyl]-1,1-dimethyl-1,2,3,4-tetrahydro[1]benzofuro[2,3-c]pyridine] cannot be ordered by Ki: < 500 nM for the first, < 500 nM for the second.

`COc1cc(OC2CCC2)cc(S(=O)(=O)c2ccc3c(c2)OC2CNCCC32)c1` (stereo not drawn) [Example 583] and `CCCCCOc1cccc(S(=O)(=O)c2ccc3c(c2)OC2CNCCC32)c1` (stereo not drawn) [Example 557] cannot be ordered by Ki: < 500 nM for the first, < 500 nM for the second.

First: CC(=O)N1CCC2c3cc(NS(=O)(=O)c4c(Cl)nc5sccn45)ccc3OC2C1 (stereo not drawn) [Example 816]
Second: CC(=O)N1CCc2c(oc3cc(S(=O)(=O)c4ccccc4)ccc23)C1 [Example 614, 1-[7-(Phenylsulfonyl)-3,4-dihydro[1]benzofuro[2,3-c]pyridin-2(1H)-yl]ethanone trifluoroacetate]
The Ki of the first is higher: 500 to 1000 nM for the first, < 500 nM for the second. The second binds more tightly here.

`COc1cncc(S(=O)(=O)c2ccc3c4c(oc3c2)CNCC4(C)C)c1` [Example 451] and `CC1(C)CNC2(CCOC2)c2oc3cc(S(=O)(=O)c4ccccc4)ccc3c21` (stereo not drawn) [Example 295] cannot be ordered by Ki: < 500 nM for the first, < 500 nM for the second.

Compared with `Cc1c(S(=O)(=O)c2ccc3c4c(oc3c2)C(C)(C)NCC4)ccc[n+]1[O-]` [Example 374], `CC1(CO)NCCc2c1oc1cc(S(=O)(=O)c3ccccc3)ccc21` (stereo not drawn) [Example 525] is lower in Ki: > 1000 nM for the first, < 500 nM for the second. The second binds more tightly here.

Compared with `O=S(=O)(c1cccc(F)c1)c1ccc2oc3c(c2c1)CCNC3C(F)(F)F` (stereo not drawn) [Example 511], `CC1NCCc2c1oc1ccc(S(=O)(=O)c3cccc(F)c3)cc21` (stereo not drawn) [Example 283] is lower in Ki: > 1000 nM for the first, < 500 nM for the second. The second binds more tightly here.

`O=S(=O)(c1cccc(Cl)c1)c1ccc2c3c([nH]c2c1)C1(CCCOC1)NCC3` (single isomer, unassigned) [Example 316] and `O=S(=O)(c1ccccc1)c1ccc2c(c1)OC1CNCCC21` (stereo not drawn) [Example 324, 7-(phenylsulfonyl)-1,2,3,4,4a,9a-hexahydro[1]benzofuro[2,3-c]pyridine] cannot be ordered by Ki: < 500 nM for the first, < 500 nM for the second.

Compared with `O=S(=O)(c1ccc2c(c1)OC1CNCCC21)C1CCCCC1` (stereo not drawn) [Example 154], `CC(C)Oc1ccccc1S(=O)(=O)c1ccc2c(c1)OC1CNCCC21` (stereo not drawn) [Example 406] is lower in Ki: > 1000 nM for the first, < 500 nM for the second. The second binds more tightly here.

Compared with `[O-][S+](c1ccc2c3c(oc2c1)CNCC3)c1cccnc1Cl` (stereo not drawn) [Example 435], `O=S(=O)(c1cccc(Oc2cnccn2)c1)c1ccc2c(c1)OC1CNCCC21` (stereo not drawn) [Example 580] is lower in Ki: > 1000 nM for the first, < 500 nM for the second.

Going from `CC12CCNCC1Oc1cc(S(=O)(=O)c3cccc(F)c3F)ccc12` (stereo not drawn) [Example 488] to `CC12CCNCC1Oc1ccc(OS(=O)(=O)c3cccc(C(F)(F)F)c3)cc12` (stereo not drawn) [Example 780], the Ki rises from < 500 nM to > 1000 nM. The first binds more tightly here.

With `O=S(=O)(c1ccccc1-c1ccccc1)c1cccc2c1OC1CNCCC21` (stereo not drawn) [Example 191] the Ki was < 500 nM.

tested on: not given; assay: not given; settings: not given

Compared with `N#CCCCCOc1cccc(S(=O)(=O)c2ccc3c(c2)OC2CNCCC32)c1` (stereo not drawn) (as salt: HCl) [Example 574], `O=S(=O)(c1cccc(OCCCO)c1)c1ccc2c(c1)OC1CNCCC21` (stereo not drawn) (as salt: HCl) [Example 568] is higher in melting point: 189 to 190 °C for the first, 206 to 209 °C for the second.

First: O=S(=O)(c1cccc(OCc2ccncc2)c1)c1ccc2c(c1)OC1CNCCC21 (stereo not drawn) (as salt: HCl) [Example 561]
Second: O=S(=O)(c1cccc(OCc2cccnc2)c1)c1ccc2c(c1)OC1CNCCC21 (stereo not drawn) (as salt: HCl) [Example 559]
The melting point of the first is higher: 182 to 185 °C for the first, 167 to 171 °C for the second.

First: O=S(=O)(c1cccc(OCC2CCCCO2)c1)c1ccc2c(c1)OC1CNCCC21 (stereo not drawn) (as salt: HCl) [Example 553]
Second: CCCOc1cccc(S(=O)(=O)c2ccc3c(c2)OC2CNCCC32)c1 (stereo not drawn) (as salt: HCl) [Example 572]
The melting point of the first is lower: 192 to 194 °C for the first, 210 to 213 °C for the second.

First: COc1ccccc1S(=O)(=O)c1ccc2c(c1)OC1CNCCC21C (racemic) (as salt: HCl) [Example 3, 7-[(2-methoxyphenyl)sulfonyl]-4a-methyl-1,2,3,4,4a,9a-hexahydro[1]benzofuro[2,3-c]pyridine]
Second: COc1ccc(S(=O)(=O)c2ccc3c(c2)OC2CNCCC32C)cc1 (racemic) (as salt: HCl) [Example 5, 7-[(4-methoxyphenyl)sulfonyl]-4a-methyl-1,2,3,4,4a,9a-hexahydro[1]benzofuro[2,3-c]pyridine]
The melting point of the first is lower: 222 to 224 °C for the first, 283 to 284 °C for the second.

Compared with `CN(C)C(=O)c1c(F)cccc1S(=O)(=O)c1ccc2c3c(oc2c1)CNCC3` (as salt: HCl) [Example 479], `CC(C)Oc1cccc(S(=O)(=O)c2ccc3c4c(oc3c2)C(C)(C)NCC4)c1` (as salt: HCl) [Example 15, 1,1-dimethyl-7-{[3-(propan-2-yloxy)phenyl]sulfonyl}-1,2,3,4-tetrahydro[1]benzofuro[2,3-c]pyridine] is lower in melting point: 245 to 248 °C for the first, 243 to 245 °C for the second.

First: COCCOc1cccc(S(=O)(=O)c2ccc3c(c2)OC2CNCCC32)c1 (stereo not drawn) (as salt: HCl) [Example 558]
Second: COCCCOc1cccc(S(=O)(=O)c2ccc3c(c2)OC2CNCCC32)c1 (stereo not drawn) (as salt: HCl) [Example 576]
The melting point of the first is higher: 210 to 213 °C for the first, 179 to 181 °C for the second.

First: O=S(=O)(c1cc(F)cc(OCC2CCOCC2)c1)c1ccc2c(c1)OC1CNCCC21 (stereo not drawn) (as salt: HCl) [Example 591]
Second: O=S(=O)(c1ccc2c(c1)OC1CNCCC21)c1cccc(OCC2CCOCC2)c1Cl (stereo not drawn) (as salt: HCl) [Example 485]
The melting point of the first is higher: 203 to 204 °C for the first, 185 to 187 °C for the second.

Compared with `CC(C)Oc1cccc(S(=O)(=O)c2ccc3c(c2)OC2CNCCC32)c1F` (stereo not drawn) (as salt: HCl) [Example 483], `CC12CCNCC1Oc1cc(S(=O)(=O)c3cccc(F)c3)ccc12` (racemic) (as salt: HCl) [Example 11, 7-[(3-fluorophenyl)sulfonyl]-4a-methyl-1,2,3,4,4a,9a-hexahydro[1]benzofuro[2,3-c]pyridine] is higher in melting point: 221 to 224 °C for the first, 288 to 290 °C for the second.

`COc1cc(OC)cc(S(=O)(=O)c2ccc3c(c2)OC2CNCCC32C)c1` (stereo not drawn) (as salt: HCl) [Example 487] showed a melting point of 283 to 285 °C.

With `CCOCC1NCCc2c1oc1cc(S(=O)(=O)c3cccc(F)c3)ccc21` (racemic) (as salt: HCl) [Example 33, 1-(ethoxymethyl)-7-[(3-fluorophenyl)sulfonyl]-1,2,3,4-tetrahydro[1]benzofuro[2,3-c]pyridine] the melting point was 230 to 250 °C (dec.).
With `CCC1(C)NCCc2c1oc1cc(S(=O)(=O)c3cccc(F)c3)ccc21` (racemic) (as salt: HCl) [Example 27, 1-ethyl-7-[(3-fluorophenyl)sulfonyl]-1-methyl-1,2,3,4-tetrahydro[1]benzofuro[2,3-c]pyridine] the melting point was > 300 °C.
In the case of `O=S(=O)(c1cccc(F)c1)c1ccc2c3c(oc2c1)C1(CCC1)NCC3` (as salt: HCl) [Example 25, 7-[(3-fluorophenyl)sulfonyl]-3,4-dihydro-2H-spiro[1-benzofuro[2,3-c]pyridine-1,1′-cyclobutane]], the melting point is reported as > 200 °C (dec.).
In the case of `CC1(C)NCCc2c1oc1cc(S(=O)(=O)c3ccc(F)c(Cl)c3)ccc21` (as salt: HCl) [Example 18, 7-[(3-chloro-4-fluorophenyl)sulfonyl]-1,1-dimethyl-1,2,3,4-tetrahydro[1]benzofuro[2,3-c]pyridine], the melting point is reported as > 200 °C (dec.).
